Structures are written as SMILES.

As usually defined, the IC50 is the concentration that inhibits the measured activity by half.

Experiment [1] deals with isolated HIV RNase H domain (p15) (Human immunodeficiency virus type 1 group M subtype B, UniProt P03366). Put plainly: Quenching of intrinsic fluorescence of the isolated RNase H domain. The format is binding, HIV-1.
For another experiment, the target named is K103N RT RNase H (Human immunodeficiency virus type 1 group M subtype B, UniProt P03366, K702N). Put plainly: biochemical. Details: species or system HIV-1.
Experiment [2] concerns the target wt HIV-1 RT-associated RDDP activity (Human immunodeficiency virus type 1 group M subtype B, UniProt P03366). Put plainly: biochemical.
Experiment [3] concerns the target wt HIV-1 RT-associated RNase H activity (Human immunodeficiency virus type 1 group M subtype B, UniProt P03366). Put plainly: biochemical. The experiment is classed as biochemical.
In a further experiment the target is Y181C RT RNase H (Human immunodeficiency virus type 1 group M subtype B, UniProt P03366, Y780C). Briefly: RNase H polymerase-independent cleavage assay, Y181C RT. The experiment is classed as biochemical, HIV-1.
The target of a further experiment is K103N RT RDDP (Human immunodeficiency virus type 1 group M subtype B, UniProt P03366, K702N). Briefly: biochemical. Also noted: species or system HIV-1.
The target in the next experiment is Y181C RT RDDP (Human immunodeficiency virus type 1 group M subtype B, UniProt P03366, Y780C). Put plainly: biochemical. Details: species or system HIV-1.

`O=C1Cc2ccccc2C(=O)N1O` [2-hydroxy-1,2,3,4-tetrahydroisoquinoline-1,3-dione] came in with an IC50 in experiment [1] of 52 µM.
On to `O=C1c2ccccc2C(=O)c2c1ccc(O)c2O` [Alizarine, alizarine], for which the IC50 was > 100 µM on K103N RT RNase H; 79 ± 8 µM in experiment [2]; > 100 µM in experiment [3]; > 100 µM against Y181C RT RNase H; 68 ± 5 µM against K103N RT RDDP; > 100 µM against Y181C RT RDDP. For the same compound, in experiment [3] (wt RT), the “inhibition of wt RT-associated RNase H function (in words)” value is “inactive”.

Source of the values: publication PMC3682423 (The FEBS journal, 2011).
